Here are results for 16 compounds from patent US9682962B2, “Pyrazolyl pyrimidinamine compound and application thereof” (SHENYANG SINOCHEM AGROCHEMICALS R&D CO., LTD., priority 2013, dated 2017).

The subject of one data set is diamond back moth. Nature of the data set: Bioactivity test against diamond back moth (airbrush spray). It counts as in vivo. As to conditions: for control against diamond back moth (mortality): after 72 h. How it is done: (§1) Compounds were dissolved in mixed solvent (acetone:methanol=1:1), and diluted to required concentration with water containing 0.1% of tween 80.
(§2) Diamond back moth, armyworm, peach aphid and carmine spider mite were used as targets and the method of spraying by airbrush was used for determination of insecticidal bioassays.
The method of spraying by airbrush: The cabbage leaves were made into plates of 2 cm diameter by use of punch. A test solution (0.5 ml) was sprayed by airbrush at the pressure of 0.7 kg/cm^2 to both sides of every plate. 10 Second instar larvae were put into the petri-dishes after the leaf disc air-dried and 3 replicates were set for each treatment. Then the insects were maintained in observation room (25° C., 60˜70% R.H.). Scores were conducted and mortalities were calculated after 72 h.

The subject of a further data set is wheat powdery mildew. Nature of the data set: Protectant activity in vivo (whole plant), wheat powdery mildew. As to conditions: protectant activity. The protocol:
(§3) The method is as followed: The whole plant is used in this test. The compound is dissolved in a proper solvent to get mother solution. The proper solvent is selected from acetone, methanol, DMF and so on according to their dissolving capability to the sample. […] The testing solution is sprayed to the host plant by a special plant sprayer. The plant is inoculated with fungus after 24 hours. According to the infecting characteristic of fungus, the plant is stored in a humidity chamber and then transferred into greenhouse after infection is finished. And the other plants are placed in greenhouse directly.

In another data set the test system is cucumber anthracnose. Nature of the data set: Protectant activity in vivo (whole plant), cucumber anthracnose. The settings on record: for control effect against cucumber anthracnose (%): protectant activity. How it is done:
as §3

Data set [1] deals with Green peach aphids (Myzus Persicae Sulzer). Nature of the data set: Bioactivity test against green peach aphid (airbrush foliar spray). It counts as in vivo. How it is done: as §1, §2
Method: Filter papers were put in culture dishes (Diameter=6 cm), and water was dripped on filter papers for preserving moisture. Green peach aphids (Myzus Persicae Sulzer) were maintained on cabbage. Leaves (Diameter=3 cm) of approximately 15-30 aphids were put in the culture dishes. Bioactivity tests were used the method of Airbrush Foliar Spray, pressure=10 psi (0.7 kg/cm2), spray volume=0.5 mL. The studies were conducted at […] 25±1 C in incubator cabinets with 60±5% RH. Survey the survival aphids after 48 h and calculate the death rates.

The subject of the next data set is cucumber downy mildew. Put plainly: Protectant activity in vivo (whole plant), cucumber downy mildew. The settings on record: protectant activity. How it is done: as §3

Take `FC(F)c1ncnc(NCCc2cnn(-c3ccccc3)c2)c1Cl` [Compound 797]: the results for the “Insecticidal activity against diamond back moth (%)” value in the data set on diamond back moth (10 mg/L), in the data set with diamond back moth (100 mg/L) and with diamond back moth (600 mg/L) were 65%, 85% and 100%, respectively. The results for the “control against diamond back moth (mortality)” value with diamond back moth (100 ppm) and in the data set on diamond back moth (600 ppm) were 85% and 100%, respectively. Also, the “control effect against wheat powdery mildew (%)” value with wheat powdery mildew (6.25 mg/L) amounted to 60%; in the data set with wheat powdery mildew (25 mg/L) it was 100%; with wheat powdery mildew (100 mg/L), 100%; in the data set with wheat powdery mildew (400 mg/L), 100%.
Consider `CCc1ncnc(NCCc2cnn(-c3ccc(OC(F)(F)F)cc3)c2)c1Cl` [Compound 596], for which the “control effect against cucumber anthracnose (%)” value in the data set on cucumber anthracnose (6.25 mg/L) was 75%; in the data set on cucumber anthracnose (25 mg/L), 98%; in the data set on cucumber anthracnose (100 mg/L) it was 100%; in the data set with cucumber anthracnose (400 mg/L), 100%. The “control effect against wheat powdery mildew (%)” value in the data set with wheat powdery mildew (6.25 mg/L) worked out at 95%; in the data set with wheat powdery mildew (25 mg/L), 100%; with wheat powdery mildew (100 mg/L), 100%; in the data set on wheat powdery mildew (400 mg/L) it was 100%.
For the compound `FC(F)c1ncnc(NCCc2cnn(Cc3ccc(Cl)cc3)c2)c1Cl` [Compound 5935], the entries for the “Insecticidal activity against peach aphid (%)” value in data set [1] (10 mg/L), in data set [1] (100 mg/L) and in data set [1] (600 mg/L) were 61%, 56% and 100%, respectively. Besides, the “control effect against cucumber downy mildew(%)” value with cucumber downy mildew (12.5 mg/L) worked out at 50%; with cucumber downy mildew (25 mg/L), 95%; in the data set with cucumber downy mildew (50 mg/L) it was 100%; with cucumber downy mildew (100 mg/L) it was 100%; with cucumber downy mildew (400 mg/L), 100%.
Take `Fc1ccc(-n2cc(CCNc3ncnc(C(F)F)c3Cl)cn2)cc1` [Compound 800]: the “Insecticidal activity against peach aphid (%)” value in data set [1] (10 mg/L) came to 71%; in data set [1] (100 mg/L), 100%; in data set [1] (600 mg/L) it was 100%. Moreover, the “control effect against cucumber downy mildew(%)” value with cucumber downy mildew (25 mg/L) is listed as 98%; in the data set on cucumber downy mildew (50 mg/L), 100%; in the data set on cucumber downy mildew (100 mg/L), 100%; with cucumber downy mildew (400 mg/L) it was 100%. The “control effect against wheat powdery mildew (%)” value in the data set with wheat powdery mildew (6.25 mg/L) worked out at 95%; with wheat powdery mildew (25 mg/L) it was 100%; in the data set with wheat powdery mildew (100 mg/L), 100%; with wheat powdery mildew (400 mg/L) it was 100%.
In the case of `CCc1ncnc(NCCc2cnn(-c3ncccc3Cl)c2)c1Cl` [Compound 4733], the “Insecticidal activity against peach aphid (%)” value is recorded as 88% in data set [1] (10 mg/L), 100% in data set [1] (100 mg/L) and 100% in data set [1] (600 mg/L). For the same compound, the “control against Green Peach Aphid (death rate)” value in data set [1] (10 ppm, after 48 h) is listed as “more than 80%”.
With `FC(F)c1ncnc(NCCc2cnn(-c3ccc(C(F)(F)F)cc3)c2)c1Cl` [Compound 865], the “Insecticidal activity against diamond back moth (%)” value with diamond back moth (10 mg/L) is given as 42%; in the data set with diamond back moth (100 mg/L), 50%; in the data set on diamond back moth (600 mg/L), 100%. Also, the “control against diamond back moth (mortality)” value in the data set with diamond back moth (600 ppm) is recorded as 100%. Moreover, the “control effect against wheat powdery mildew (%)” value in the data set with wheat powdery mildew (6.25 mg/L) stood at 40%; in the data set on wheat powdery mildew (25 mg/L), 80%; with wheat powdery mildew (100 mg/L) it was 85%; in the data set with wheat powdery mildew (400 mg/L), 100%.
For `FC(F)c1ncnc(NCCc2cnn(-c3ccc(OC(F)(F)F)cc3)c2)c1Cl` [Compound 874], the “control effect against cucumber anthracnose (%)” value is given as 0% in the data set with cucumber anthracnose (0.78 mg/L); 20% with cucumber anthracnose (1.56 mg/L); 60% in the data set with cucumber anthracnose (3.13 mg/L); 98% with cucumber anthracnose (6.25 mg/L); 100% in the data set on cucumber anthracnose (25 mg/L); 100% in the data set on cucumber anthracnose (100 mg/L). Further, the “control effect against cucumber anthracnose (%)” value with cucumber anthracnose (400 mg/L) is reported as 100%. Besides, the “control effect against wheat powdery mildew (%)” value in the data set on wheat powdery mildew (6.25 mg/L), with wheat powdery mildew (25 mg/L), with wheat powdery mildew (100 mg/L) and with wheat powdery mildew (400 mg/L) was 100% throughout.
Take `CCc1ncnc(NCCc2cnn(-c3ccc(C)cc3)c2)c1Cl` [Compound 575]: the “Insecticidal activity against peach aphid (%)” value is 73% in data set [1] (10 mg/L), 88% in data set [1] (100 mg/L) and 92% in data set [1] (600 mg/L).
For `Cc1ncnc(NCCc2cnn(-c3c(Cl)cc(C(F)(F)F)cc3Cl)c2)c1Cl` [Compound 406], the “Insecticidal activity against peach aphid (%)” value is listed as 28% in data set [1] (10 mg/L), 95% in data set [1] (100 mg/L) and 100% in data set [1] (600 mg/L). Also, the “control effect against wheat powdery mildew (%)” value in the data set with wheat powdery mildew (6.25 mg/L) amounted to 90%; in the data set with wheat powdery mildew (25 mg/L) it was 98%; in the data set with wheat powdery mildew (100 mg/L), 100%; in the data set on wheat powdery mildew (400 mg/L) it was 100%.
Consider `FC(F)c1ncnc(NCCc2cnn(-c3ccc(Cl)cc3)c2)c1Cl` [Compound 815], for which the “Insecticidal activity against peach aphid (%)” value is 41% in data set [1] (10 mg/L), 94% in data set [1] (100 mg/L) and 100% in data set [1] (600 mg/L). Further, the “control effect against wheat powdery mildew (%)” value in the data set with wheat powdery mildew (6.25 mg/L) is given as 80%; with wheat powdery mildew (25 mg/L), 100%; with wheat powdery mildew (100 mg/L), 100%; with wheat powdery mildew (400 mg/L), 100%.
With `Cc1ncnc(NCCc2cnn(-c3ccc(F)cc3)c2)c1Cl` [Compound 244], the “Insecticidal activity against peach aphid (%)” value in data set [1] (10 mg/L) was 65%; in data set [1] (100 mg/L), 71%; in data set [1] (600 mg/L), 91%. In addition, the “control effect against wheat powdery mildew (%)” value with wheat powdery mildew (6.25 mg/L) was 50%; in the data set with wheat powdery mildew (25 mg/L), 80%; in the data set with wheat powdery mildew (100 mg/L), 100%; in the data set with wheat powdery mildew (400 mg/L) it was 100%.
For the compound `CCc1ncnc(NCCc2cnn(-c3ccc(F)cc3)c2)c1Cl` [Compound 522], the “Insecticidal activity against peach aphid (%)” value is reported as 33% in data set [1] (10 mg/L), 96% in data set [1] (100 mg/L) and 100% in data set [1] (600 mg/L).
Turning to `CC(C)(C)n1cc(CCNc2ncnc(C(F)F)c2Cl)cn1` [Compound 38], the “control effect against cucumber anthracnose (%)” value in the data set on cucumber anthracnose (6.25 mg/L) came out at 85%; in the data set on cucumber anthracnose (25 mg/L) it was 90%; in the data set on cucumber anthracnose (100 mg/L), 95%; with cucumber anthracnose (400 mg/L), 100%. The “Insecticidal activity against peach aphid (%)” value in data set [1] (100 mg/L) and in data set [1] (600 mg/L) was 100% throughout. The “control effect against wheat powdery mildew (%)” value is listed as 40% with wheat powdery mildew (6.25 mg/L), 100% in the data set on wheat powdery mildew (25 mg/L), 100% in the data set on wheat powdery mildew (100 mg/L) and 100% with wheat powdery mildew (400 mg/L).
On to `Cc1ncnc(NCCc2cnn(C(C)(C)C)c2)c1Cl` [Compound 8], for which the “control effect against cucumber anthracnose (%)” value is recorded as 60% in the data set on cucumber anthracnose (6.25 mg/L), 80% in the data set on cucumber anthracnose (25 mg/L), 90% in the data set on cucumber anthracnose (100 mg/L) and 100% with cucumber anthracnose (400 mg/L). In addition, the “control effect against wheat powdery mildew (%)” value with wheat powdery mildew (100 mg/L) and with wheat powdery mildew (400 mg/L) was 100% each time.
As to `Cc1ncnc(NCCc2cnn(-c3ccc(OC(F)(F)F)cc3)c2)c1Cl` [Compound 318], the “control effect against cucumber anthracnose (%)” value in the data set with cucumber anthracnose (0.78 mg/L) turned out to be 98%; in the data set on cucumber anthracnose (1.56 mg/L), 98%; in the data set on cucumber anthracnose (3.13 mg/L), 100%; in the data set with cucumber anthracnose (6.25 mg/L), 100%; in the data set on cucumber anthracnose (25 mg/L), 100%; with cucumber anthracnose (100 mg/L), 100%. The “control effect against cucumber anthracnose (%)” value in the data set with cucumber anthracnose (400 mg/L) is recorded as 100%. Further, the “protectant activity against cucumber anthracnose in vivo” value with cucumber anthracnose (0.78 ppm) turned out to be 98%; in the data set on cucumber anthracnose (1.56 ppm) it was 98%; in the data set with cucumber anthracnose (3.13 ppm) it was 100%. Besides, the “control effect against cucumber downy mildew(%)” value in the data set on cucumber downy mildew (25 mg/L) was 90%; in the data set with cucumber downy mildew (50 mg/L), 98%; with cucumber downy mildew (100 mg/L), 100%; in the data set on cucumber downy mildew (400 mg/L) it was 100%. Further, the “control effect against wheat powdery mildew (%)” value is on record as 90% in the data set with wheat powdery mildew (6.25 mg/L), 100% in the data set on wheat powdery mildew (25 mg/L), 100% with wheat powdery mildew (100 mg/L) and 100% in the data set on wheat powdery mildew (400 mg/L).
On to `CCc1ncnc(NCCc2cnn(-c3ccc(C(F)(F)F)cc3)c2)c1Cl` [Compound 587], for which the “Insecticidal activity against peach aphid (%)” value in data set [1] (100 mg/L) came to 93%; in data set [1] (600 mg/L), 100%.
